According to the supplement of paper PMC10307832:

How the values were obtained:
Assay in all cases: relative viability (nuclei count vs DMSO), 5 days (fraction); higher = more cells survive
DM3189 + Crizotinib = compound: C1CN(CCN1)C2=CC=C(C=C2)C3=CN4C(=C(C=N4)C5=CC=NC6=CC=CC=C56)N=C3 [DM3189] + C[C@@H](Oc1cc(-c2cnn(C3CCNCC3)c2)cnc1N)c1c(Cl)ccc(F)c1Cl [Crizotinib] (partner 1 µM)
How it was run: (§1)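 Relative viability divides the nuclei count in treated wells by that in vehicle wells. Lung cancer cell lines were seeded in 1536-well plates, dosed by pin tool the next day, and fixed and stained after 5 days in one step with final 0.05% Triton X-100, 1% formaldehyde and 1 ug/ml Hoechst. Dosing was a single drug or a fixed anchor-drug dose plus five library-drug doses (not always all listed) in √10 steps, and values are medians of duplicate plates imaged at 4×.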

DM3189 + Foretinib = compound: C1CN(CCN1)C2=CC=C(C=C2)C3=CN4C(=C(C=N4)C5=CC=NC6=CC=CC=C56)N=C3 [DM3189] + COc1cc2c(Oc3ccc(NC(=O)C4(C(=O)Nc5ccc(F)cc5)CC4)cc3F)ccnc2cc1OCCCN1CCOCC1 [Foretinib] (partner 0.25 µM)
How it was run: as §1

DM3189 + Linsitinib = compound: C1CN(CCN1)C2=CC=C(C=C2)C3=CN4C(=C(C=N4)C5=CC=NC6=CC=CC=C56)N=C3 [DM3189] + C[C@]1(O)C[C@@H](c2nc(-c3ccc4ccc(-c5ccccc5)nc4c3)c3c(N)nccn32)C1 [Linsitinib] (partner 1 µM)
How it was run: as §1

DM3189 + Phenformin = compound: C1CN(CCN1)C2=CC=C(C=C2)C3=CN4C(=C(C=N4)C5=CC=NC6=CC=CC=C56)N=C3 [DM3189] + N=C(N)NC(=N)NCCc1ccccc1 [Phenformin] (partner 250 µM)
How it was run: as §1

DM3189 = compound: C1CN(CCN1)C2=CC=C(C=C2)C3=CN4C(=C(C=N4)C5=CC=NC6=CC=CC=C56)N=C3 [DM3189]
How it was run: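 On vehicle-anchored 1536-well plates, lung cancer cell lines held overnight at 37 °C were pinned with five library-drug doses (not always all listed) spaced by √10. With no medium change over 5 days, they were then fixed, permeabilised and Hoechst-stained in one step and imaged at 4×. MetaXpress counted nuclei, and viability is the median across plates of treated-well over vehicle-well nuclei. Acceptance needed control CV below 25% and at least one doubling.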

Cell Line	relative viability (DM3189 + Crizotinib; first compound 0.08 µM)	relative viability (DM3189 + Crizotinib; first compound 0.253 µM)	relative viability (DM3189 + Crizotinib; first compound 0.8 µM)	relative viability (DM3189 + Crizotinib; first compound 2.53 µM)	relative viability (DM3189 + Foretinib; first compound 0.08 µM)	relative viability (DM3189 + Foretinib; first compound 0.253 µM)	relative viability (DM3189 + Foretinib; first compound 0.8 µM)	relative viability (DM3189 + Foretinib; first compound 2.53 µM)	relative viability (DM3189 + Linsitinib; first compound 0.08 µM)	relative viability (DM3189 + Linsitinib; first compound 0.253 µM)	relative viability (DM3189 + Linsitinib; first compound 0.8 µM)	relative viability (DM3189 + Linsitinib; first compound 2.53 µM)	relative viability (DM3189 + Phenformin; first compound 0.08 µM)	relative viability (DM3189 + Phenformin; first compound 0.253 µM)	relative viability (DM3189 + Phenformin; first compound 0.8 µM)	relative viability (DM3189 + Phenformin; first compound 2.53 µM)	relative viability (DM3189; 0.08 µM)	relative viability (DM3189; 0.253 µM)	relative viability (DM3189; 0.8 µM)	relative viability (DM3189; 2.53 µM)
NCI-H1651	0.857	0.886	0.878	0.957	0.83	0.716	0.831	0.827	1.09	1.02	1.21	0.991	0.45	0.339	0.335	0.272	1.03	1.02	0.96	1.16
201T	1.06	1.03	1	1.07	1.01	1.03	0.73	1.27	1.07	1.03	1.01	1.08	0.482	0.429	0.388	0.431	0.981	0.981	0.843	1.04
NCI-H322M	1.06	0.848	0.872	0.924	0.942	0.944	0.886	0.774	0.891	0.863	0.921	0.977	0.866	0.782	0.651	0.652	1.06	0.907	0.874	0.707
A549	0.86	0.763	0.755	0.705	0.989	0.95	0.998	0.976	0.654	0.593	0.549	0.545	0.151	0.162	0.206	0.136	1.06	1.06	0.993	1.08
NCI-H838	0.752	0.815	0.531	0.732	0.951	0.891	0.689	0.895	0.969	0.918	0.716	0.87	0.775	0.507	0.471	0.385	0.978	0.909	0.764	0.922
NCI-H460	0.839	0.939	0.96	1.02	0.951	1.03	0.995	1.34	1.21	0.879	0.708	0.353	0.737	0.535	0.451	0.545	1.01	0.949	0.855	1.12
HOP-62	1	0.866	0.939	0.75	1.05	1.07	1.04	1.16	1.05	0.901	0.98	1.03	0.691	0.722	0.6	0.682	1.08	0.945	0.932	1.03
SK-LU-1	0.714	0.868	0.676	0.522	0.77	0.66	0.492	0.479	0.888	0.688	0.667	0.524	0.479	0.383	0.33	0.314	1.03	0.793	0.814	0.749
HCC-44	0.859	0.818	0.625	0.893					0.711	0.724	0.56	0.733	0.218	0.155	0.178	0.153	1.05	0.957	0.869	0.934
LCLC-103H	1.01	1.01	0.963	1.05	0.847	0.761	0.718	0.702	1.1	1.07	1.05	1.17	0.357	0.315	0.286	0.304	1.06	0.935	0.951	1.02
ChaGo-K-1	1.03	1.1	0.97	1.09	1.07	0.903	0.858	0.976					0.53	0.467	0.455	0.432	1.01	0.997	0.971	1
NCI-H1703	0.763	0.747	0.524	0.548	0.37	0.443	0.395	0.263	0.597	0.635	0.575	0.693					0.951	0.916	0.825	0.767
NCI-H1793					0.768	0.847	0.905	0.783	1.09	0.997	0.937	1.21	0.397	0.412	0.415	0.344	1.22	0.991	0.929	1.01
NCI-H1650	0.896	0.851	1.15	0.717	1.04	1.18	1.21	1.12					0.5	0.347	0.387	0.354	1.09	0.923	0.901	0.928
NCI-H1395					0.896	0.929	0.831	1.03	0.979	1.05	0.695	1.03	0.465	0.431	0.456	0.442	1.03	0.834	0.697	0.945
NCI-H1792	0.861	0.992	0.887	0.441					0.409	0.532	0.449	0.315	0.275	0.267		0.458	1.27	1	0.712	0.868
IA-LM	0.857		1.01	1.11	1.24	1.2	1.26	1.32	0.699	0.682	0.51	0.901					1.2	1.11	1.06	1.21
